{
  "source": "paper PMC9946977",
  "about": "“Identification of linderalactone as a natural inhibitor of SHP2 to ameliorate CCl4-induced liver fibrosis” (Frontiers in Pharmacology, 2023)",
  "tested_on": "HSCs activation (α-SMA, vimentin, desmin)",
  "experiment": "CCl4 mouse model: HSC activation markers in liver",
  "type": "in vivo, C57BL/6 mice",
  "details": "CCl4 mice",
  "procedure": "C57BL/6 mice (20 ± 2 g) were obtained from Hangzhou Medical College Experimental Animal Center (Hangzhou, China). The animals were maintained under controlled temperature (22°C ± 1°C), humidity (50%), and light (12 h light/12 h dark). The animals were fed a standard laboratory diet and provided with free access to tap water. All animals received humane care according to institutional animal care guidelines approved by the Experimental Animal Ethical Committee of Hangzhou Medical College. Forty mice were randomly divided into six groups: (1) vehicle control (n = 7); (2) CCl4 model (n = 7); (3) CCl4 + LIN (20 mg/kg) (n = 7); (4) CCl4 + LIN (40 mg/kg) (n = 7); (5) LIN (40 mg/kg) (n = 7); and (6) CCl4 + silymarin (SIL) (200 mg/kg) (n = 5). LIN and SIL were dissolved in 0.5% CMC-Na solution. Mice were administered LIN or SIL (intragastric administration, i.g.) once per day and CCl4 (intraperitoneal injection, i.p.; mixed 1:3 in olive oil, 2 mL/kg) twice per week for 4 weeks. Mice in the vehicle control group received olive oil (i.p. twice a week, 4 weeks) and 0.5% CMC-Na (i.g. every day, 4 weeks). After treatment, the mice were sacrificed, and plasma and liver tissues were collected and further analysed.\nTotal RNA was extracted from liver tissues and LX-2 cells using the TRIzol reagent. cDNA was synthesised using a PrimeScript RT Master Mix kit. Real-time PCR was performed using SYBR Green premix according to the manufacturer’s instructions. Relative expression of target genes was normalised to actin, analysed by the delta-delta-CT method and given as a ratio compared with the vehicle control. Primer sequences used in this study are listed in Supplementary Material.\nThe formalin-fixed and de-paraffinized liver sections (5 μm) were incubated with 5% bovine serum albumin to minimise non-specific binding, and then incubated with α-SMA antibody (Santa Cruz, SC-53142) in a humidified chamber overnight at 4°C. After washing thrice with PBS, the sections were incubated with FITC-conjugated secondary antibody (SH0058; Skyhobio) for 1 h. After washing thrice, the liver sections were incubated with DAPI for 10 min. Images were captured using an inverted microscope (IX81; Olympus, Japan).\nParaffin-embedded liver sections were deparaffinized in xylene, rehydrated in a gradient of ethanol to distilled water, and then quenched by 3% hydrogen peroxide and then incubated with 5% bovine serum albumin, followed by incubation with vimentin antibody (ABclonal, A19607) at 4°C overnight, and further detected by using DAKO EnVision detection kits (Agilent Technologies Co., Ltd. K346811). The sections were counterstained with haematoxylin. Images were taken using an inverted microscope, and vimentin-positive cells were counted manually using Image-Pro Plus 6 in three random fields per sample (each group contained three samples).\nLiver proteins were isolated by using a lysis buffer containing 50 mM Tris-HCl (pH7.5), 150 mM NaCl, 1 mM EDTA, 20 mM NaF, 0.5% NP-40, 10% glycerol, 1 mM phenylmethylsulphonyl fluoride, 10 μg/mL aprotinin, 10 μg/mL leupeptin, and 10 μg/mL pepstatin. The supernatants were collected after centrifugation at 3,000 g for 10 min at 4°C, and the protein concentration of each sample was determined and normalised to the same protein concentration. Protein samples were separated by sodium dodecyl sulphate-polyacrylamide gel electrophoresis and transferred onto polyvinylidene fluoride membranes. The membranes were incubated with the indicated primary and secondary antibodies, and the proteins in the membranes were visualised using a chemiluminescence kit. TGF-® antibody (CST, 3711), Smad 2/3 antibody (CST, 8685), p-Smad 2/3 antibody (CST, 8828), anti-α-SMA antibody (Santa Cruz, SC-53142), vimentin antibody (ABclonal, A19607), desmin antibody (ABclonal, A3736), GAPDH antibody (Beyotime, AF0006), and SHP2 antibody (CST, 3397). […]",
  "key": {"[1]": {"details": "LIN 20 mg/kg, Western blot, p < 0.05"}},
  "data": [
    {"smiles": "C/C1=C\\CCC2=C[C@@H](OC2=O)c2c(C)coc2C1", "note": "[LIN, linderalactone]", "values": [
      {"measurement": "liver α-SMA accumulation (immunofluorescence staining)", "setting": "LIN", "value": "largely inhibited"},
      {"measurement": "protein expression of hepatic Des", "setting": "[1]", "value": "significant reduction"},
      {"measurement": "protein expression of hepatic Vim", "setting": "[1]", "value": "significant reduction"},
      {"measurement": "protein expression of hepatic α-SMA", "setting": "[1]", "value": "significant reduction"},
      {"measurement": "hepatic mRNA expression of Des", "setting": "LIN 20 and 40 mg/kg", "value": "significantly reduced"},
      {"measurement": "hepatic mRNA expression of Vim", "setting": "LIN 20 and 40 mg/kg", "value": "significantly reduced"},
      {"measurement": "hepatic mRNA expression of acta2", "setting": "LIN 20 and 40 mg/kg", "value": "significantly reduced"}
    ]}
  ]
}
